The text below walks through data of paper PMC4846294 (Bioorganic & medicinal chemistry, 2016).

The subject of assay [1] is SK-OV-3 (ovarian). As to conditions: read-out: GI50 SRB Assay SK-OV-3; cited from earlier work.
Assay [2] deals with purified bovine brain tubulin. As to conditions: read-out: Inhibition of Tubulin Polymerization IC50; cited from earlier work.
The subject of assay [3] is tubulin. As to conditions: inhibitor 5 μM; cited from earlier work.
In assay [4] the test system is DU-145 (prostate). As to conditions: read-out: GI50 SRB Assay DU-145; cited from earlier work.
Assay [5] has as its system NCI-H460 (lung). As to conditions: read-out: GI50 SRB Assay NCI-H460; cited from earlier work.
Assay [6] has as its system NCI-H460 (lung). Put plainly: SRB cytotoxicity assay, NCI-H460. Format: cell-based, human. As to conditions: read-out: GI50 SRB Assay NCI-H460; 48 h treatment; average of n ≥ 3. A general note: Sulforhodamine B stains cellular protein and so reports cell mass.
In assay [7] the test system is tubulin. Put plainly: Colchicine binding assay. As to conditions: inhibitor 5 μM; 1.0 μM tubulin, 5.0 μM [3H]colchicine.
Assay [8] concerns SK-OV-3 (ovarian). Put plainly: SRB cytotoxicity assay, SK-OV-3. Format: cell-based, human. As to conditions: read-out: GI50 SRB Assay SK-OV-3; 48 h treatment; average of n ≥ 3.
The subject of assay [9] is DU-145 (prostate). Kind of assay: SRB cytotoxicity assay, DU-145. Format: cell-based, human. As to conditions: read-out: GI50 SRB Assay DU-145; 48 h treatment; average of n ≥ 3.

Where two headings read alike, the source gives them in different places. Marks after values point to notes of the source that are not given here.

For orientation: IC50 means the concentration that inhibits the measured activity by half. In the case of `COc1ccc(/C=C\c2cc(OC)c(OC)c(OC)c2)c(O)c1O` [CA1, combretastatin A-1], the GI50 with SK-OV-3 (ovarian) [1] is 38.4 ± 24.2 nM; in the assay on DU-145 (prostate) [4], 32.6 ± 17.3 nM; with NCI-H460 (lung) [5] it was 15.3 ± 15.8 nM. The IC50 in [2] was 1900 nM. In the assay on tubulin [3], the “Inhibition of Colchicine Binding (% Inhibition±SD)” value was 99.6±0.7^b %.

Consider “(Z)-2-(2'-Methoxy-4'-aminophenyl)-1-(3,4,5-trimethoxyphenyl)ethene hydrochloride [Compound 9]”, for which the GI50 in the assay on NCI-H460 (lung) [6] stood at 26.3 ± 16.1 nM; in the assay with SK-OV-3 (ovarian) [8], 7.35 ± 3.5 nM; in the assay on DU-145 (prostate) [9], 28.5 ± 23.2 nM. Further, in the assay on tubulin [7], the “Inhibition of Colchicine Binding (% Inhibition±SD)” value is recorded as 75±0.90%.
